2 molecules from publication PMC10495984, “Structural basis of IRGB10 oligomerization by GTP hydrolysis” (Frontiers in Immunology, 2023) can be followed below.

In general, stoichiometry N refers to the number of molecules, sites or subunits per partner or assembly.

In one data set the target is T1, IRGB10 (Mus musculus, UniProt U5NFV2).
T1 construct: recombinant from E. coli BL21(DE3), Ni-NTA purified, C-terminal LEH from plasmid kept; modelled residues 16-406
T1 sequence (U5NFV2 1-406): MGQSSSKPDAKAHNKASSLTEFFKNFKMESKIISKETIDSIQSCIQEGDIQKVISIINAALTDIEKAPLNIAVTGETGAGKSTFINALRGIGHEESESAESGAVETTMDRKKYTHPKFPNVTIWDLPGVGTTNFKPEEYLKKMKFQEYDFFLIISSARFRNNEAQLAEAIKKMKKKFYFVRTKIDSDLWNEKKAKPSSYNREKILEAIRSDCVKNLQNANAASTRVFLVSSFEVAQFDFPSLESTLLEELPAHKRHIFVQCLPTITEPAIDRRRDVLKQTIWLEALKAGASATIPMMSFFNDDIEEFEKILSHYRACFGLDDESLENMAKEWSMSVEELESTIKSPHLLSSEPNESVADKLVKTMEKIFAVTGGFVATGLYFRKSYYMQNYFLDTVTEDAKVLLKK
The data set is described as follows: turbidity at […] nm, SEC and native PAGE of GTP-driven oligomerization. Type of data set: biochemical. Conditions: nucleotide-free protein, MgCl2, 37 °C, pH 8.0; hydrolysis inferred from oligomerization.

Data set [1] concerns the molecule itself. The experiment in a line: SEC-MALS; GDP-bound protein (endogenous E. coli GDP kept); Superdex 200 HR 10/30, 20 mM Tris-HCl pH 8.0, 150 mM NaCl. (In general: Size exclusion chromatography separates by hydrodynamic size, large species first.)

For the molecule `Nc1nc2c(ncn2[C@@H]2O[C@H](COP(=O)(O)OP(=O)(O)OP(=O)(O)O)[C@@H](O)[C@H]2O)c(=O)[nH]1` [GTP], on IRGB10, the “turbidity at 350 nm, SEC and native PAGE of GTP-driven oligomerization” value was “The results of these turbidity assays indicated that GTP hydrolysis caused the oligomerization of IRGB10”.

B1: Immunity-related GTPase B10 (IRGB10) (enzyme, mouse)
chain: MGQSSSKPDAKAHNMASSLTEFFKNFKMESKIISKETIDSIQSCIQEGDIQKVISIINAALTDIEKAPLNIAVTGETGAGKSTFINALRGIGHEESESAESGAVETTKDRKKYTHPKFPNVTIWDLPGVGTTNFKPEEYLKKMKFQEYDFFLIISSARFRDNEAQLAEAIKKMKKKFYFVRTKIDSDLWNEKKAKPSSYNREKILEVIRSDCVKNLQNANAASTRVFLVSSFEVAQFDFPSLESTLLEELPAHKRHIFVQCLPTITEPAIDRRRDVLKQTIWLEALKAGASATIPMMSFFNDDIEEFEKILSHYRACFGLDDESLENMAKEWSMSVEELESTIKSPHLLSSEPNESVADKLVKTMEKIFAVTGGFVATGLYFRKSYYMQNYFLDTVTEDAKVLLKK
notes: IRGB10, immunity-related GTPase B10, member of the mouse IRG (p47 GTPase) family; the crystal model runs from residue 16 to residue 406 and is followed by LEH from the plasmid; nucleotide-free after a 1.5 M NaCl wash on the resin; GppNHp, GTP or GDP added afterwards; also called wildtype IRGB10; nucleotide-free IRGB10; source: E. coli BL21 (DE3), purified (Ni-NTA, SEC)
With B1, the “stoichiometry N” value in data set [1] turned out to be 2.
